{"source": "patent US20250320501A1", "about": "“PALMITOYLATION OF THE ALTERNATIVE AMINO TERMINUS OF THE BTK-C ISOFORM CONTROLS SUBCELLULAR DISTRIBUTION AND SIGNALING” (The Research Foundation for the State University of New York, priority 2022, published 2025)", "key": {"[1]": {"target": "T1, BTK-C (Homo sapiens, UniProt Q06187, M35A)", "T1 construct": "cells expressing Flag-tagged, full-length versions of BTK-A and BTK-C; expressed in transfected cells; host or cells: HEK293", "T1 sequence (Q06187 1-693 isoform Q06187-2 M35A)": "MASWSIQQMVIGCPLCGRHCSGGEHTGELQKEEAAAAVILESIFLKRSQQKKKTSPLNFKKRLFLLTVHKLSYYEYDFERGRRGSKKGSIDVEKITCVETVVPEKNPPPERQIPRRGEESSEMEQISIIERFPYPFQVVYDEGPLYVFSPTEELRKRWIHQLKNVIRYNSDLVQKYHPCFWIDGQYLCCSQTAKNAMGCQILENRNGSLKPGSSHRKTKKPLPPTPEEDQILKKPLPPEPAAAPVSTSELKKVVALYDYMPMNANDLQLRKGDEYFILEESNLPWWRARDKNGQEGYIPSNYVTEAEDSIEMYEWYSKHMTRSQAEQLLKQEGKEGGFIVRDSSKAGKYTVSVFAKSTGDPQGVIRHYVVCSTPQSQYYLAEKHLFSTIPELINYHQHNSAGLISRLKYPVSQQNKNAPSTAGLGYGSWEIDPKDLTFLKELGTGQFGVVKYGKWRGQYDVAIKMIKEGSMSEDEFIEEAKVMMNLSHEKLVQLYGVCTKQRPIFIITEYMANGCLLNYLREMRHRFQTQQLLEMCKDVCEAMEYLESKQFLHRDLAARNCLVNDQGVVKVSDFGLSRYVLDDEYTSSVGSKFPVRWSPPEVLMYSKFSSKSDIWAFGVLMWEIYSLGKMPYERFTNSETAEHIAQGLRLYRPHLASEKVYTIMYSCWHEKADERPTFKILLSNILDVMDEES", "assay": "Acyl incorporation assay (click chemistry after Flag immunoprecipitation), BTK-C", "assay_type": "cell-based", "settings": "HEK293 cells co-expressing zDHHC5, 100 μM analogue for 4 h", "description": "(§1) FIG. 2A-D presents the BTK-C isoform palmitoylated: FIG. 2A presents a diagram of BTK isoform C-terminal Flag-tagged constructs: FIG. 2B presents an expression of Flag-tagged constructs in MDA-MB-231 cells; FIG. 2C presents detection scheme for acylated BTK isoforms. Cells were incubated with 17-ODYA. Flag immunoprecipitates were reacted with azide-activated biotinylation reagent and detected through reaction with streptavidin-linked horseradish peroxidase; and FIG. 2D presents HEK293 cells were transfected with 1 μg of BTK-A, BTK-C, or BTK-C C13A, C16A and 2 μg of a plasmid expressing zDHHC5. 24 h after transfection cells were incubated for 4 h with 100 μM palmitic acid alkyne (17-ODYA). Cell lysate supernatants were immunoprecipitated with Anti-Flag M2 affinity gel (Sigma) at 4° C. overnight, subjected to click chemistry with 20 μM biotin picolyl azide for 30 m at room temperature before electrophoresis and blotting.\nReporter construction and viral transgenesis: GFP fusion constructs were generated using a BTK pleckstrin homology domain fusion protein vector, PH-Btk-GFP (Addgene Plasmid #51463). BTK constructs (BTK-A R28C; BTK-C; BTK-C R28C; BTK-C C13A, C16A; BTK-C C13A,C16A,R28C) were generated in this plasmid using QuikChange site directed mutagenesis. The exon 1C sequence (FIG. 1B) was subcloned from the original cDNA isolate. To prevent internal translational initiation at the BTK-A ATG, this codon was changed to Ala in all BTK-C constructs. Production of either the 77 kDa BTK-A isoform or the 65 kDa p65BTK was not observed for BTK-C constructs. GFP reporters were subcloned into MARXIVpuro REV plasmid (22). Full-length mutant proteins were produced by subcloning into a BTK gene with a C-terminal Flag tag expressed from a MARXIVpuro REV vector. DNA sequence was confirmed by DNA sequence analysis for all constructs. ϕNX-Ampho cells were transfected with Flag-tagged versions of BTK as described. Empty vector was used as a control. A lentivirus-born shRNA targeting the chromosomal BTK 3′UTR TRCN0000000358 (Sigma-Aldrich, Saint Louis, MO) was used to silence endogenous BTK isoform expression such that each line predominantly expresses the wild-type or mutant version of the intended isoform. BTK acylation: HEK293 cells plated on 6 wells plates were transfected using X-tremeGENE HP transfection reagent (Sigma-Aldrich, Saint Louis, MO) with 1 μg of BTK-C, BTK-A, or BTK-C C13A, C16A with 2 μg of zDHHC5 plasmid. 24 hours after transfection, cells were incubated with 100 μM of palmitic acid alkyne (in DMEM with 1 mg/ml defatted BSA) for 4 h at 37° C. Cells were washed twice in PBS, then lysed on ice in 50 mM Tris HCl, pH 7.4 with 150 mM NaCl, 1 mM EDTA, 1% TRITON X-100 and protein inhibitors. […]"}, "[2]": {"tested_on": "LNCaP C42b prostate cancer cell line", "assay": "Toxicity of PI3K inhibition in LNCaP C42b cells", "assay_type": "cell-based", "settings": "PTEN- LNCaP C42b prostate cancer cell line, compared with breast cells"}, "[3]": {"tested_on": "breast cells", "assay": "Toxicity of PI3K inhibition in breast cells", "assay_type": "cell-based", "settings": "breast cells (not shown)", "excerpt": "Regulation of BTK-C localization and activity by PIP3 levels: Activation of BTK-A in B cells has been extensively studied. Adsorption of BTK-A to the B cell plasma membrane is driven by binding to PIP3 which opens the BTK monomer conformation allowing dimerization, auto-activation (Y223 phosphorylation) and transactivation (Y551 phosphorylation). […] Mutation of the analogous arginine in BTK-C(R62 in BTK-C) causes it to fail to localize to the membrane (FIG. 3S). […] For example, MDA-MB-231 cells which are PTEN^+ display less plasma membrane staining when compared to SUM149 cells which are PTEN. […] This PIP3-dependent activation may occur through BTK-C dimer formation through juxtaposed membrane-bound PH domains as occurs with the BTK-A. Using an assay developed by Chung et al., co-transfecting BTK-C with the BTK-C-GFP construct which contains the PH domain but is missing the kinase domain reduces Y551 phosphorylation compared with vector or BTK-C only (FIG. 4D)."}, "[4]": {"tested_on": "BTK-C", "assay": "Activating tyrosine phosphorylation of BTK-C after insulin stimulation (immunoblot densitometry)", "assay_type": "cell-based, human", "settings": "transfected HEK293 cells", "description": "(§2) FIG. 5A-D present activating tyrosine phosphorylation of the BTK isoforms. BTK-A, BTK-C and BTK-C C13, C16 mutant constructs were transfected into HEK293 cell and after 24 hours stimulated with insulin. Values represent fold tyrosine-phosphorylated signal normalized to total BTK-A or BTK-C(anti-Flag) determined by densitometry; FIG. 5B presents phosphorylation of the BTK target tyrosine 759 of PLCγ2 in transfected HEK293 cells; FIG. 5C presents BTK-C expression increases proliferation rate of MDA-MB-231 (PTEN+) but not SUM149 (PTEN−) cells. Cells were seeded in 96 well plates and fixed with 4% formaldehyde and counted at 72 hours. Data were normalized to control and are presented as mean+SD. *p<0.05 using Student's ttest, n=3; and FIG. 5D presents BTK-C increases glucose uptake in MDA-MB-231 (PTEN+) but not SUM149 (PTEN−) cells. Cells were seeded and treated with 100 μM 2-NBDG for 15 min. Fluorescence images were acquired with an InCell 2200 and overall fluorescence intensity quantified. […]\n(§3) Embodiment disclosed herein included the following materials and methods: Cell lines MD-AMB-231, BT549, SUM149, SKBr3 and ϕNX-AMPHO were obtained from the American Type Culture Collection (ATCC). […] In growth and uptake experiments, differences between control and treatment conditions were evaluated using Student's t test for pairwise comparisons. […]"}, "[5]": {"tested_on": "BTK-A", "assay": "Activating tyrosine phosphorylation of BTK-A after insulin stimulation (immunoblot densitometry)", "assay_type": "cell-based, human", "settings": "transfected HEK293 cells", "description": "as §2, §3"}, "[6]": {"target": "T2, BTK-A (Homo sapiens, UniProt Q06187)", "T2 construct": "cells expressing Flag-tagged, full-length versions of BTK-A and BTK-C; expressed in transfected cells; host or cells: HEK293", "assay": "Acyl incorporation assay (click chemistry after Flag immunoprecipitation), BTK-A", "assay_type": "cell-based", "settings": "HEK293 cells co-expressing zDHHC5, 100 μM analogue for 4 h", "description": "as §1\nReporter construction and viral transgenesis: GFP fusion constructs were generated using a BTK pleckstrin homology domain fusion protein vector, PH-Btk-GFP (Addgene Plasmid #51463). BTK constructs (BTK-A R28C; BTK-C; BTK-C R28C; BTK-C C13A, C16A; BTK-C C13A,C16A,R28C) were generated in this plasmid using QuikChange site directed mutagenesis. The exon 1C sequence (FIG. 1B) was subcloned from the original cDNA isolate. […]"}, "[7]": {"tested_on": "BTK-A and BTK-C", "assay": "Activating phosphorylation of BTK isoforms after stimulation with other ligands", "assay_type": "cell-based, human", "settings": "ligand stimulation (not shown)"}, "[8]": {"settings": "insulin stimulation under reduced serum conditions"}}}
{"molecule": "CCCCCCCC/C=C\\CCCCCCCC(=O)O", "note": "[oleic acid]", "values": [{"measurement": "incorporation of acyl analogue label into BTK-C", "setting": "[1]", "result": "failed to observe incorporation"}]}
{"molecule": "C[C@H](Nc1ncnc2[nH]cnc12)c1cc2cccc(Cl)c2c(=O)n1-c1ccccc1", "note": "[IPI-145, Duvelisib]", "values": [{"measurement": "toxicity", "setting": "[2]", "result": "less toxicity"}, {"measurement": "toxicity", "setting": "[3]", "result": "significant toxicity"}]}
{"molecule": "Insulin: common activator of PI3K in cancer cells", "values": [{"measurement": "transactivation (phosphorylation of BTK by its dimerized partner) of BTK-C", "setting": "[4]; insulin stimulation (FIG. 5A)", "result": "largely unchanged"}, {"measurement": "increase of Y551 phosphorylation of BTK-C", "setting": "[4]; [8]", "result": "~24", "unit": "%"}, {"measurement": "transactivation (phosphorylation of BTK by its dimerized partner) of BTK-A", "setting": "[5]; insulin stimulation (FIG. 5A)", "result": "largely unchanged"}, {"measurement": "increase of Y551 phosphorylation of BTK-A", "setting": "[5]; [8]", "result": "two-fold"}]}
{"molecule": "CCCCC/C=C\\C/C=C\\C/C=C\\C/C=C\\CCCC(=O)O", "note": "[arachidonic acid]", "values": [{"measurement": "incorporation of acyl analogue label into BTK-C", "setting": "[1]", "result": "failed to observe incorporation"}]}
{"molecule": "C#CCCCCCCCCCCCCCCCC(=O)O", "note": "[17-ODYA, 17-octadecynoic acid]", "values": [{"measurement": "incorporation of acyl analogue label into BTK-A", "setting": "[6]", "result": "not"}, {"measurement": "incorporation of acyl analogue label into BTK-C", "setting": "[1]", "result": "label is increased"}]}
{"molecule": "EGF: ligand used for stimulation of BTK activation (NSDSECPLSHDGYCLHDGVCMYIEALDKYACNCVVGYIGERCQYRDLKWWELR; UniProt P01133 971-1023, looked up)", "values": [{"measurement": "increase of activating phosphorylation levels above unstimulated levels", "setting": "[7]", "result": "only modestly"}]}
{"molecule": "CCCCCC/C=C\\CCCCCCCC(=O)O", "note": "[palmitoleic acid]", "values": [{"measurement": "incorporation of acyl analogue label into BTK-C", "setting": "[1]", "result": "failed to observe incorporation"}]}
